The values below come from patent publication US20240018161A1, “MODULATORS OF CYSTIC FIBROSIS TRANSMEMBRANE CONDUCTANCE REGULATOR” (VERTEX PHARMACEUTICALS INCORPORATED, priority 2020, published 2024).

For orientation: EC50 means the concentration at which the effect is half-maximal.

For data set [1] the following is noted: 13-membered ring, DMF.
Data set [2] addresses T1, CFTR-mediated chloride transport in human intestinal epithelial enteroid cells (Homo sapiens, UniProt P13569). Description: Membrane potential dye, Enteroid Assay B. Format: cell-based. The settings on record: Enteroid Assay B; for EC50: read-out: Ent. B EC50. A digest of the protocol: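 After dye loading (20 μM methyl oxonol with 30 μM CaCCinh-A01 and 30 μM Chicago Sky Blue, 25 min at room temperature), enteroid cells were exchanged into chloride-free buffer. Fluorescence was recorded for 15 min after adding stimulation solution to drive CFTR-mediated chloride transport.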

The conditions of data set [3]: 13-membered ring, DMF. The source holds these as a separate data set.
For data set [4], the target named is T1, CFTR-mediated chloride transport in human intestinal epithelial enteroid cells. Description: Membrane potential dye, Enteroid Assay A. Format: cell-based. The settings on record: for EC50: read-out: Ent. A EC50. A digest of the protocol: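 Membrane potential dye (20 μM methyl oxonol, with 30 μM CaCCinh-A01 and 30 μM Chicago Sky Blue) loaded 25 min at room temperature into ROCK-inhibitor-seeded human enteroid cells. Chloride-free stimulation buffer triggered transport, followed by 15 min fluorescence. % Activity relative to 3 μM/3 μM/300 nM triple-combination control.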

Where two headings read alike, the source gives them in different places.

T1 sequence (P13569 with tags, fused parts or gaps DEL508-508): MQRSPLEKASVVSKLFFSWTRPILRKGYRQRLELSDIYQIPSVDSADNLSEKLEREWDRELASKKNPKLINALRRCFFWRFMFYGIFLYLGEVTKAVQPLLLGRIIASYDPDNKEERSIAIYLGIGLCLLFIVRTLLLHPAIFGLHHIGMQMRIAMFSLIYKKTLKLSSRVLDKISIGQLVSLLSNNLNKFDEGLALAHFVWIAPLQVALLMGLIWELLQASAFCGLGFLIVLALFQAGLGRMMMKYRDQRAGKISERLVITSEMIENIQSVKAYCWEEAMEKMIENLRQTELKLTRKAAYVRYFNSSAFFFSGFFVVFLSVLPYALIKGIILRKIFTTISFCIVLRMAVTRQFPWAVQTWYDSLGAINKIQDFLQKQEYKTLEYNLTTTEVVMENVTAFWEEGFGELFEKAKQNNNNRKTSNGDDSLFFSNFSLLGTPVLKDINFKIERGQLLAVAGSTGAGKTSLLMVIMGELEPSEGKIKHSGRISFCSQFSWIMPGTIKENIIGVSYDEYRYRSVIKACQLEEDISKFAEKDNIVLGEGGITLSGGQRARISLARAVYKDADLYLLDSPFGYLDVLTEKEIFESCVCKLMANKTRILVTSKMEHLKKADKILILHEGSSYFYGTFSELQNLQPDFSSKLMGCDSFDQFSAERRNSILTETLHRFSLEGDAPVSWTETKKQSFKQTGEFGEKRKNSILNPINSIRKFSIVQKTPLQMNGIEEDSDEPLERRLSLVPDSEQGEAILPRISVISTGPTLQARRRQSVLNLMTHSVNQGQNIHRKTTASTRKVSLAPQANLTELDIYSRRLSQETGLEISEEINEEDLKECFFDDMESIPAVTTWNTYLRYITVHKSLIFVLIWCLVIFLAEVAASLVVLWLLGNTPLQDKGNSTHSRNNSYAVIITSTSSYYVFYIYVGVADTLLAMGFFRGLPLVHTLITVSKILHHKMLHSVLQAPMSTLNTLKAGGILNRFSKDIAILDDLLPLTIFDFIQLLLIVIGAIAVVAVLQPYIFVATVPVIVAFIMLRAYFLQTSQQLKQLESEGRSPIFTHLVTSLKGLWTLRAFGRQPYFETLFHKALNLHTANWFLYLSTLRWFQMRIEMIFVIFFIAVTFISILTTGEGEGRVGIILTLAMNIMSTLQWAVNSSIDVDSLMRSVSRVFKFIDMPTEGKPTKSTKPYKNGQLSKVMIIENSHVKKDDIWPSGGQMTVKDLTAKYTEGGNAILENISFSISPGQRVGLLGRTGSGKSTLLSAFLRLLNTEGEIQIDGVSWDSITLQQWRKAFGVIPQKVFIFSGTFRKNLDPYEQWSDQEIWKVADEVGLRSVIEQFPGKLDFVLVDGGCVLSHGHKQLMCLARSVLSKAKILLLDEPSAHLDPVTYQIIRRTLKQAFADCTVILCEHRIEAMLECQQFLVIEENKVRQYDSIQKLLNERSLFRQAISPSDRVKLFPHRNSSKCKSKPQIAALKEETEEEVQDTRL

With `Cc1cccc(C)c1-c1cc2nc(n1)NS(=O)(=O)c1cccc(c1)C(=O)N1C[C@@H](CCC1CC(C)C)O2` (stereo partly drawn) [Compound 234, (3R)-18-(2,6-Dimethylphenyl)-6-(2-methylpropyl)-2-oxa-14λ^6-thia-7,15,17,20-tetraazatetracyclo[14.3.1.13,7.19,13]docosa-1(20),9(21),10,12,16,18-hexaene-8,14,14-trione], in data set [1] (from Cc1cccc(C)c1-c1cc(Cl)nc(NS(=O)(=O)c2cccc(C(=O)N3C[C@H](O)CCC3CC(C)C)c2)n1, snar bond, NaH, 11.6 mM, 25.0 °C, 16.0 h), the ring closure, isolated yield is 38%. Moreover, in data set [2], the “Ent. B Max Activity (%)” value is listed as “+++ (+++ is >600%)” and the EC50 was less than 1000 nM.
`Cc1cccc(C)c1-c1cc2nc(n1)NS(=O)(=O)c1cccc(c1)C(=O)N1C(c3ncc(OC(C)C)cn3)CCCC(CC(C)C)C1CO2` (centres unmarked) registered a ring closure, isolated yield in data set [1] (from Cc1cccc(C)c1-c1cc(OCC2NC(c3ncc(OC(C)C)cn3)CCCC2CC(C)C)nc(NS(=O)(=O)c2cccc(C(=O)O)c2)n1, amide bond, CDMT/NMM, 14.3 mM, 48.0 h, 2 steps) of 41%. The same molecule displayed a ring closure, yield after HPLC in data set [3] (from Cc1cccc(C)c1-c1cc(OCC2NC(c3ncc(OC(C)C)cn3)CCCC2CC(C)C)nc(NS(=O)(=O)c2cccc(C(=O)O)c2)n1, amide bond, CDMT/NMM, 13.7 mM, 48.0 h, 2 steps) of 12%.
In the case of `Cc1cccc(C)c1-c1cc2nc(n1)NS(=O)(=O)c1cccc(c1)C(=O)N1CCN(Cc3ccccc3)CC(O2)C1CC(C)C` (centres unmarked), the ring closure, isolated yield in data set [1] (from Cc1cccc(C)c1-c1cc(Cl)nc(NS(=O)(=O)c2cccc(C(=O)N3CCN(Cc4ccccc4)CC(O)C3CC(C)C)c2)n1, snar bond, NaH, 15.6 mM, 25.0 °C, 23.0 h) is 21%. Moreover, the ring closure, yield after HPLC in data set [3] (from Cc1cccc(C)c1-c1cc(Cl)nc(NS(=O)(=O)c2cccc(C(=O)N3CCN(Cc4ccccc4)CC(O)C3CC(C)C)c2)n1, snar bond, NaH, 15.2 mM, 25.0 °C, 24.0 h) was 11%.
For `Cc1cccc(C)c1-c1cc2nc(n1)NS(=O)(=O)c1cccc(c1)C(=O)N1CCc3cc(C(C)(C)C)ccc3C1CO2` (single isomer, unassigned) [Compound 235, 8-tert-butyl-17-(2,6-dimethylphenyl)-14-oxa-21λ^6-thia-3,18,20,27-tetraazapentacyclo[20.3.1.115,19.03,12.06,11]heptacosa-1(26),6(11),7,9,15(27),16,18,22,24-nonaene-2,21,21-trione], the ring closure, isolated yield in data set [1] (from Cc1cccc(C)c1-c1cc(OCC2NCCc3cc(C(C)(C)C)ccc32)nc(NS(=O)(=O)c2cccc(C(=O)O)c2)n1, amide bond, HATU/Et3N, 16.5 mM, 25.0 °C, 16.0 h) turned out to be 34%. In addition, in data set [2], the “Ent. B Max Activity (%)” value is on record as “++ (++ is 30-60%)” and the EC50 is less than 1000 nM.
In data set [1] (from Cc1cccc(C)c1-c1cc(Cl)nc(NS(=O)(=O)c2cccc(C(=O)N3CCN(C(=O)OC(C)(C)C)CC(O)C3)c2)n1, snar bond, NaH, 15.5 mM, 25.0 °C, 16.0 h), `Cc1cccc(C)c1-c1cc2nc(n1)NS(=O)(=O)c1cccc(c1)C(=O)N1CCN(C(=O)OC(C)(C)C)CC(C1)O2` (centres unmarked) [Compound 43, tert-Butyl 12-(2,6-dimethylphenyl)-2,8,8-trioxo-15-oxa-8λ^6-thia-1,9,11,18,22-pentaazatetracyclo[14.4.1.13,7.110,14]tricosa-3(23),4,6,10(22),11,13-hexaene-18-carboxylate] came in with a ring closure, isolated yield of 56%. For the same molecule, the EC50 in data set [4] (enteroid cells incubated with test compound 18-24 hours, acute 10 μM forskolin and 300 nM N-[2,4-bis(1,1-dimethylethyl)-5-hydroxyphenyl]-1,4-dihydro-4-oxoquinoline-3-carboxamide) is less than 1000 nM. Moreover, the “Ent. A Max Activity (%)” value in data set [4] (percentage of chloride transport of triple combination control (3 μM N-[(6-amino-2-pyridyl)sulfonyl]-6-(3-fluoro-5-isobutoxy-phenyl)-2-[(4S)-2,2,4-trimethylpyrrolidin-1-yl]pyridine-3-carboxamide based)) was “+++ (+++ is >60%)”.
Regarding `Cc1cccc(C)c1-c1cc2nc(n1)NS(=O)(=O)c1cccc(c1)CN1CC(CN(C(=O)OC(C)(C)C)CC1=O)O2` (centres unmarked) [Compound 77, tert-Butyl 12-(2,6-dimethylphenyl)-8,8,20-trioxo-15-oxa-8λ^6-thia-1,9,11,18,22-pentaazatetracyclo[14.4.1.13,7.110,14]tricosa-3(23),4,6,10,12,14(22)-hexaene-18-carboxylate], the ring closure, isolated yield in data set [1] (from Cc1cccc(C)c1-c1cc(OC2CNC(=O)CN(C(=O)OC(C)(C)C)C2)nc(NS(=O)(=O)c2cccc(CBr)c2)n1, other bond, NaH, 19.7 mM, 0.0 °C, 0.5 h) came to 68%. Further, in data set [4] (Enteroid Assay A), the “Ent. A Max Activity (%)” value was “++ (++ is 30-60%)” and the EC50 was less than 1000 nM.
For `Cc1cccc(C)c1-c1cc2nc(n1)NS(=O)(=O)c1cccc(c1)C(=O)N1CCN(Cc3ccccc3)C[C@@H](O2)[C@H]1CC(C)C` [Compound 84, (16R,21R)-18-Benzyl-12-(2,6-dimethylphenyl)-21-(2-methylpropyl)-15-oxa-8λ^6-thia-1,9,11,18,22-pentaazatetracyclo[14.4.1.13,7.110,14]tricosa-3(23),4,6,10,12,14(22)-hexaene-2,8,8-trione], the ring closure, isolated yield in data set [1] (from Cc1cccc(C)c1-c1cc(Cl)nc(NS(=O)(=O)c2cccc(C(=O)N3CCN(Cc4ccccc4)C[C@H](O)[C@H]3CC(C)C)c2)n1, snar bond, NaH, 16.6 mM, 25.0 °C, 72.0 h) was 35%. Also, in data set [4] (Enteroid Assay A), the “Ent. A Max Activity (%)” value is “+++ (+++ is >600%)” and the EC50 was less than 1000 nM.
For `Cc1cccc(C)c1-c1cc2nc(n1)NS(=O)(=O)c1cccc(c1)C(=O)N1C[C@H](CN(Cc3ccccc3)[C@H](CC(C)C)C1)O2` [Compound 111, (16S,19R)-18-Benzyl-12-(2,6-dimethylphenyl)-19-(2-methylpropyl)-15-oxa-8λ^6-thia-1,9,11,18,22-pentaazatetracyclo[14.4.1.13,7.110,14]tricosa-3(23),4,6,10(22),11,13-hexaene-2,8,8-trione], in data set [1] (from Cc1cccc(C)c1-c1cc(Cl)nc(NS(=O)(=O)c2cccc(C(=O)N3C[C@@H](O)CN(Cc4ccccc4)[C@H](CC(C)C)C3)c2)n1, snar bond, NaH, 28.6 mM, 4.6 h), the ring closure, isolated yield turned out to be 57%. Also, the “Ent. A Max Activity (%)” value in data set [4] (Enteroid Assay A) was “+ (+ is <30%)”.
As for `Cc1cccc(C)c1-c1cc2nc(n1)NS(=O)(=O)c1cccc(c1)C(=O)N1C[C@H](CN(C(=O)OC(C)(C)C)C[C@@H]1CC(C)C)O2` [Compound 100, tert-Butyl (16R,20S)-12-(2,6-dimethylphenyl)-20-(2-methylpropyl)-2,8,8-trioxo-15-oxa-8λ^6-thia-1,9,11,18,22-pentaazatetracyclo[14.4.1.13,7.110,14]tricosa-3(23),4,6,10(22),11,13-hexaene-18-carboxylate], the ring closure, isolated yield in data set [1] (from Cc1cccc(C)c1-c1cc(Cl)nc(NS(=O)(=O)c2cccc(C(=O)N3CC(O)CN(C(=O)OC(C)(C)C)C[C@@H]3CC(C)C)c2)n1, snar bond, NaH, 31.2 mM, 25.0 °C, 3.08 h) came to 35%. The “Ent. A Max Activity (%)” value in data set [4] (Enteroid Assay A) was “+ (+ is <30%)”.
In data set [1] (from Cc1cccc(C)c1-c1cc(Cl)nc(NS(=O)(=O)c2cccc(C(=O)N3C[C@H](O)CN(C(=O)OC(C)(C)C)C[C@@H]3C(C)C)c2)n1, snar bond, NaH, 29.4 mM, 3.17 h), `Cc1cccc(C)c1-c1cc2nc(n1)NS(=O)(=O)c1cccc(c1)C(=O)N1C[C@@H](CN(C(=O)OC(C)(C)C)C[C@@H]1C(C)C)O2` [Compound 132, tert-Butyl (16S,20S)-12-(2,6-dimethylphenyl)-2,8,8-trioxo-20-(propan-2-yl)-15-oxa-8λ^6-thia-1,9,11,18,22-pentaazatetracyclo[14.4.1.13,7.110,14]tricosa-3(23),4,6,10(22),11,13-hexaene-18-carboxylate] displayed a ring closure, isolated yield of 46%. In data set [4] (Enteroid Assay A), the “Ent. A Max Activity (%)” value is recorded as “++ (++ is 30-60%)” and the EC50 is less than 1000 nM.
In data set [1] (from Cc1cccc(C)c1-c1cc(Cl)nc(NS(=O)(=O)c2cccc(C(=O)N3CCN(Cc4ccccc4)C[C@@H](O)[C@H]3CC(C)C)c2)n1, snar bond, NaH, 16.5 mM, 25.0 °C, 17.0 h), `Cc1cccc(C)c1-c1cc2nc(n1)NS(=O)(=O)c1cccc(c1)C(=O)N1CCN(Cc3ccccc3)C[C@H](O2)[C@H]1CC(C)C` [Compound 86, (16S,21R)-18-Benzyl-12-(2,6-dimethylphenyl)-21-(2-methylpropyl)-15-oxa-8λ^6-thia-1,9,11,18,22-pentaazatetracyclo[14.4.1.13,7.110,14]tricosa-3(23),4,6,10(22),11,13-hexaene-2,8,8-trione] gave a ring closure, isolated yield of 5%. For the same molecule, in data set [4] (Enteroid Assay A), the “Ent. A Max Activity (%)” value is listed as “+++ (+++ is >600%)” and the EC50 was less than 1000 nM.
In turn, `Cc1cccc(C)c1-c1cc2nc(n1)NS(=O)(=O)c1cccc(c1)C(=O)N1C[C@@H](CN(Cc3ccccc3)[C@@H](CC(C)C)C1)O2` [Compound 109, (16R,19S)-18-Benzyl-12-(2,6-dimethylphenyl)-19-(2-methylpropyl)-15-oxa-8λ^6-thia-1,9,11,18,22-pentaazatetracyclo[14.4.1.13,7.110,14]tricosa-3(23),4,6,10(22),11,13-hexaene-2,8,8-trione] returned a ring closure, isolated yield in data set [1] (from Cc1cccc(C)c1-c1cc(Cl)nc(NS(=O)(=O)c2cccc(C(=O)N3CC(O)CN(Cc4ccccc4)[C@@H](CC(C)C)C3)c2)n1, snar bond, NaH, 30.0 mM, 0.0 °C, 7.0 h) of 28%. Also, in data set [4] (Enteroid Assay A), the “Ent. A Max Activity (%)” value is recorded as “+++ (+++ is >600%)” and the EC50 was less than 1000 nM.
